This note sets out measurements from publication PMC7889890, “Structure of photosystem I-LHCI-LHCII from the green alga Chlamydomonas reinhardtii in State 2” (Nature Communications, 2021).

Assay [1] has as its target T1, PsaA (Chlamydomonas reinhardtii, UniProt P12154).
T1 construct: PSI core subunit within native PSI-LHCI-LHCII supercomplex purified from state 2 thylakoids
In kind it is binding. The conditions noted are these: Bcr850; native supercomplex.

Assay [2] addresses T2, PsaL (Chlamydomonas reinhardtii, UniProt A8IL32).
T2 construct: gene CHLRE_12g486300v5; mature PSI core subunit within native PSI-LHCI-LHCII supercomplex purified from state 2 thylakoids
T2 sequence (A8IL32 36-196): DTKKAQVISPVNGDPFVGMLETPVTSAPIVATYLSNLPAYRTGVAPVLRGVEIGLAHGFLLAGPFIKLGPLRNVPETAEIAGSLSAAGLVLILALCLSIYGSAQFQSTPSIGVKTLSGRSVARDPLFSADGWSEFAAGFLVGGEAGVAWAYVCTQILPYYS
The class given is binding. The conditions noted are these: Bcr201, Bcr205, Bcr206; native supercomplex.

The target of assay [3] is T3, PsaH (Chlamydomonas reinhardtii, UniProt P13352).
T3 construct: mature PSI core subunit within native PSI-LHCI-LHCII supercomplex purified from state 2 thylakoids
T3 sequence (P13352 31-130): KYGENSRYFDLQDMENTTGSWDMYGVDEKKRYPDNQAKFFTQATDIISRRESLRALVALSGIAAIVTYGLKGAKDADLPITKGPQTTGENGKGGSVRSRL
The class given is binding. The conditions noted are these: Bcr204; native supercomplex.

Assay [4] addresses T4, PsaD (Chlamydomonas reinhardtii (endogenous …, UniProt Q39615 36-196)).
T4 construct: PSI core subunit PsaD of C. reinhardtii; source: endogenous, C. reinhardtii CC-137 cells in state 2; thylakoid membranes solubilised with α-DDM, PSI-LHCI-LHCII purified (sucrose density gradient, gel filtration)
T4 sequence (looked up): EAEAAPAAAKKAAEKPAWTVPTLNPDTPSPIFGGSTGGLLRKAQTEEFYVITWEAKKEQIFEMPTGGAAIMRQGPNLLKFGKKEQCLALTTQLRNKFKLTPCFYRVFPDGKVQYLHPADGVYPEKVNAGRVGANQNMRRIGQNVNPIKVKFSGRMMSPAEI
In words: cryo-EM structure; single-particle cryo-EM of the PSI-LHCI-LHCII supercomplex purified from state 2 cells; 3.42 Å overall; 10 mM Hepes-KOH pH 7.5, 50 mM NaCl, 1 mM NaN3, 10 mM NaF, 0.01% α-DDM. The conditions noted are these: both partners purified.

T1 sequence (P12154 whole entry): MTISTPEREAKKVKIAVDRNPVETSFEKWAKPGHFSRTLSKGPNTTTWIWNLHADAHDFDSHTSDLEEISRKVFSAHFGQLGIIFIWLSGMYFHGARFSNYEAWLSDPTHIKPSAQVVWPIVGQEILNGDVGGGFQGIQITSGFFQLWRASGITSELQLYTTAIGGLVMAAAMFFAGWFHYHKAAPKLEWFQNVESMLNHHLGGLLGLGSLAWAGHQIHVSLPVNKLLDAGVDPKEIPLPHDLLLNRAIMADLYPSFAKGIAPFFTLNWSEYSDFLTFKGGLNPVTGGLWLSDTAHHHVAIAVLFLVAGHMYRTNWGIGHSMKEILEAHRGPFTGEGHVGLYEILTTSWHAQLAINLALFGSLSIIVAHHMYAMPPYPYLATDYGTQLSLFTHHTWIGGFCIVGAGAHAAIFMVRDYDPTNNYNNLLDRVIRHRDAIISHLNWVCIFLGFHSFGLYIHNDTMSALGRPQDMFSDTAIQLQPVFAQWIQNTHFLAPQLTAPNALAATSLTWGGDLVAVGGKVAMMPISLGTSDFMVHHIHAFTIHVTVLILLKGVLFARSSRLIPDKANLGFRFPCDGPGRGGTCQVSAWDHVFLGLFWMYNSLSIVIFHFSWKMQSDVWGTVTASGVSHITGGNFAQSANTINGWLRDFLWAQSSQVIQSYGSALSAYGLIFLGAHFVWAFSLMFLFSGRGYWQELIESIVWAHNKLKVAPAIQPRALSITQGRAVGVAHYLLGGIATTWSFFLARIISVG

As for `CC1=C(/C=C/C(C)=C/C=C/C(C)=C/C=C/C=C(C)/C=C/C=C(C)/C=C/C2=C(C)CCCC2(C)C)C(C)(C)CCC1` [BCR], the “cryo-EM structure, 3.42 Å” value was “Bcr850 of PsaA interacts with helix A of PsaO” in assay [1]; “three BCRs (Bcr201, Bcr205 and Bcr206) were observed in the green algal PsaL” in assay [2]; “one BCR (Bcr204) were found to bind to PsaH in the present structure” in assay [3].

B1: PsaH (natural protein, UniProt P13352 31-130, looked up)
chain: T3 sequence (P13352 31-130)
notes: PSI core subunit PsaH of C. reinhardtii; also called Cr-PsaH; source: endogenous, C. reinhardtii CC-137 cells in state 2; thylakoid membranes solubilised with α-DDM, PSI-LHCI-LHCII purified (sucrose density gradient, gel filtration)
Consider B1, for which the binding result in assay [4] is reported as “binds”.
